Calls of active or inactive are those of the source.
Legend:
Type in all cases: functional
[1] = biological target: Serine/threonine-protein kinase pim-1 (Homo sapiens, UniProt P11309)
[2] = biological target: Mitogen-activated protein kinase 8 (Homo sapiens, UniProt P45983);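 further: value comes from one member of a kinome-wide kinase profiling panel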
[3] = biological target: Tyrosine-protein kinase JAK2 (Homo sapiens, UniProt O60674);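 further: JAK2 tested as one member of a kinase panel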
[4] = biological target: Cyclin-dependent kinase 7 (Homo sapiens, UniProt P50613);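 further: value comes from a kinome-wide kinase profiling panel in which CDK7 is one member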
[5] = biological target: T1, Tyrosine-protein kinase receptor TYRO3 (Homo sapiens, UniProt Q06418);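 further: TYRO3 value obtained as one member of a kinome-wide profiling panel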
T1 sequence (Q06418 whole entry): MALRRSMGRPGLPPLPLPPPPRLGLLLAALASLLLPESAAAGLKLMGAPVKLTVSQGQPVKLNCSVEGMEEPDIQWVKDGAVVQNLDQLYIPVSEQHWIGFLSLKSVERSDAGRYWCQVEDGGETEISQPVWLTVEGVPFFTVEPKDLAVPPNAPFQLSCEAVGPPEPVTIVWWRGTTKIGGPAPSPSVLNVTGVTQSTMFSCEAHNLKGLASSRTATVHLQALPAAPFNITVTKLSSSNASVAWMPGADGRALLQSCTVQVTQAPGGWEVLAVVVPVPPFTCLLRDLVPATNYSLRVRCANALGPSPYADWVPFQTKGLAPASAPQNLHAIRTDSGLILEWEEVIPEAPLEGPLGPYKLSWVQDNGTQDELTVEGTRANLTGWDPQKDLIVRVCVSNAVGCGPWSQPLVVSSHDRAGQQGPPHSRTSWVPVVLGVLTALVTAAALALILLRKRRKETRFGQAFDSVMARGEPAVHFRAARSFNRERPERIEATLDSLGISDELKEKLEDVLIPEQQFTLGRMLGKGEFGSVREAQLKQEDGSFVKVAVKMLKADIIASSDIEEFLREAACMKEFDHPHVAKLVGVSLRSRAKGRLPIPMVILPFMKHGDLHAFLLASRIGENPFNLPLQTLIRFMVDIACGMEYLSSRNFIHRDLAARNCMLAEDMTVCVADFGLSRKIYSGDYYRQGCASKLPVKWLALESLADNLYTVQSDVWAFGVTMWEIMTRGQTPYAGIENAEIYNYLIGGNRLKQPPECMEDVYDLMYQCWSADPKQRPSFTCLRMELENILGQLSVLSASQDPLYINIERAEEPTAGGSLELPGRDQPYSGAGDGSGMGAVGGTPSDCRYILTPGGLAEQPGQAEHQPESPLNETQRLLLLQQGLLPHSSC

[6] = biological target: Vascular endothelial growth factor receptor 2 (Homo sapiens, UniProt P35968)
[7] = biological target: T2, Serine/threonine-protein kinase D3 (Homo sapiens, UniProt O94806);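 further: determined within a kinase panel screen, with PRKCN as the panel member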
T2 sequence (O94806 whole entry): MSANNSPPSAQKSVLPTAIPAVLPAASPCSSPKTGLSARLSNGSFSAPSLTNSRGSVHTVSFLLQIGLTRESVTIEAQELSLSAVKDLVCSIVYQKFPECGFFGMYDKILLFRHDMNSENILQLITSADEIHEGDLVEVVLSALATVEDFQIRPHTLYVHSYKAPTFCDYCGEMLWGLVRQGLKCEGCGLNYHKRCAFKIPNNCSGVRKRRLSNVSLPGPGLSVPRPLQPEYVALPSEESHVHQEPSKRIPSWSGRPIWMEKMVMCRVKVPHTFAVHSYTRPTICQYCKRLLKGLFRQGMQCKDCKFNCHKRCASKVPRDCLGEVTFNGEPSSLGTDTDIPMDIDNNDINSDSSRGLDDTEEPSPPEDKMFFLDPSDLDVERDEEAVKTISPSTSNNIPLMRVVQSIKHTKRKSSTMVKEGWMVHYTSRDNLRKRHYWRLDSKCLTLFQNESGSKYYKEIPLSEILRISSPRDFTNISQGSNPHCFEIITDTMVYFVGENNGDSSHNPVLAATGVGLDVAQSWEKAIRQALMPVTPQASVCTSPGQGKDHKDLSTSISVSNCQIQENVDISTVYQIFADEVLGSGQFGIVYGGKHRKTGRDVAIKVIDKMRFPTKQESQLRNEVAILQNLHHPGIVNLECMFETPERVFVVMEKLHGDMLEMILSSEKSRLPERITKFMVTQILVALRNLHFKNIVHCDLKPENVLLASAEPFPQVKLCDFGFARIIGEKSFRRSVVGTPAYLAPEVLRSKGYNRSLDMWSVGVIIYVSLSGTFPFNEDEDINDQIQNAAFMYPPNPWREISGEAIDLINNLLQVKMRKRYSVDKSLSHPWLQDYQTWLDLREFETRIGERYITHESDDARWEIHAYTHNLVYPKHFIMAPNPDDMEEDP

[8] = biological target: T3, Mitogen-activated protein kinase kinase kinase kinase 2 (Homo sapiens, UniProt Q12851);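 further: measured as one member of a kinome-wide kinase panel, with MAP4K2 as the panel entry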
T3 sequence (Q12851 whole entry): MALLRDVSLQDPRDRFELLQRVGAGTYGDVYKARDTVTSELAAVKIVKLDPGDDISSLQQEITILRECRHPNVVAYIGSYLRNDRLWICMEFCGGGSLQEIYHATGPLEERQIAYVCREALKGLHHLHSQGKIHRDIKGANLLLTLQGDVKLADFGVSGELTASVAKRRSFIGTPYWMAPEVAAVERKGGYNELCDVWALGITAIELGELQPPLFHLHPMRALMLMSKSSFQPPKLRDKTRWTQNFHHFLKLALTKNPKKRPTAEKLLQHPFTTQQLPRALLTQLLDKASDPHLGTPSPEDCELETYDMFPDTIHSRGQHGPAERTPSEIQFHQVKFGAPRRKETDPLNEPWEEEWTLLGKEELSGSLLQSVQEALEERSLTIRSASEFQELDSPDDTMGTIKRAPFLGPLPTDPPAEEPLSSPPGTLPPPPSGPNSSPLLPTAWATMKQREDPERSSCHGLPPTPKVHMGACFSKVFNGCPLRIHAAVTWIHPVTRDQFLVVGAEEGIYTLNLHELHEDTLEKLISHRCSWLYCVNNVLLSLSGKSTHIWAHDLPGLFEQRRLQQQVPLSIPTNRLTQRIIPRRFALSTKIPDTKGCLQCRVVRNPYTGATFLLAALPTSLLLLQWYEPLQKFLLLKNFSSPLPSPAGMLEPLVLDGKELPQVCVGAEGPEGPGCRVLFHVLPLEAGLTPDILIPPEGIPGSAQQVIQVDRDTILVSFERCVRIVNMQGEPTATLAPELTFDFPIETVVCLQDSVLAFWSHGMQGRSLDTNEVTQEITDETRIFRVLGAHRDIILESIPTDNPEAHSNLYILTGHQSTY

[9] = biological target: Glycogen synthase kinase-3 alpha (Homo sapiens, UniProt P49840);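 further: GSK3A result taken from a broad kinome-wide kinase panel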
[10] = biological target: Cyclin-dependent kinase 8 (Homo sapiens, UniProt P49336); test: Navigating the Kinome. Panel member name: CDK8
[11] = biological target: Calcium/calmodulin-dependent protein kinase type II subunit alpha (Homo sapiens, UniProt Q9UQM7); test: Navigating the Kinome. Panel member name: CAMK2A
Sequence of Calcium/calmodulin-dependent protein kinase type II subunit alpha (Q9UQM7 whole entry): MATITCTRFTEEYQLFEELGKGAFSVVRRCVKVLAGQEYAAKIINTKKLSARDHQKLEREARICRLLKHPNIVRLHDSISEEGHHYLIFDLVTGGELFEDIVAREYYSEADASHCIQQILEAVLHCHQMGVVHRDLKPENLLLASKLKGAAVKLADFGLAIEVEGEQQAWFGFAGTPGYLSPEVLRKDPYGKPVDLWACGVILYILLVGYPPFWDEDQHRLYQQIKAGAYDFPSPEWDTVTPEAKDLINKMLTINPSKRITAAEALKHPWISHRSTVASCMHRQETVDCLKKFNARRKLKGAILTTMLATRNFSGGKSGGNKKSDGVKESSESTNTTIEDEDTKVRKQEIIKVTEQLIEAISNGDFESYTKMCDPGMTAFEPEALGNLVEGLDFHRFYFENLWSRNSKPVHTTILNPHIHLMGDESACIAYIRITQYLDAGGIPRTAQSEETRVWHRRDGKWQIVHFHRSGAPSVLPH

Sequence of Serine/threonine-protein kinase pim-1 (P11309 whole entry): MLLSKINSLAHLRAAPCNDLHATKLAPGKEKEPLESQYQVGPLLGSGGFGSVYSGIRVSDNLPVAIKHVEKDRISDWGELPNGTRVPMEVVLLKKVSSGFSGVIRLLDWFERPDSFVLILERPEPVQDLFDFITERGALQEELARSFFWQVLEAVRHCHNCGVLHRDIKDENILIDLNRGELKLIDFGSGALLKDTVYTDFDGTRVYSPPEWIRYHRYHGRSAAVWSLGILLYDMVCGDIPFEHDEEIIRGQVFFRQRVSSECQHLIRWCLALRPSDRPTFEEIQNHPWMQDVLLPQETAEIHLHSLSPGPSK
Sequence of Vascular endothelial growth factor receptor 2 (P35968 whole entry): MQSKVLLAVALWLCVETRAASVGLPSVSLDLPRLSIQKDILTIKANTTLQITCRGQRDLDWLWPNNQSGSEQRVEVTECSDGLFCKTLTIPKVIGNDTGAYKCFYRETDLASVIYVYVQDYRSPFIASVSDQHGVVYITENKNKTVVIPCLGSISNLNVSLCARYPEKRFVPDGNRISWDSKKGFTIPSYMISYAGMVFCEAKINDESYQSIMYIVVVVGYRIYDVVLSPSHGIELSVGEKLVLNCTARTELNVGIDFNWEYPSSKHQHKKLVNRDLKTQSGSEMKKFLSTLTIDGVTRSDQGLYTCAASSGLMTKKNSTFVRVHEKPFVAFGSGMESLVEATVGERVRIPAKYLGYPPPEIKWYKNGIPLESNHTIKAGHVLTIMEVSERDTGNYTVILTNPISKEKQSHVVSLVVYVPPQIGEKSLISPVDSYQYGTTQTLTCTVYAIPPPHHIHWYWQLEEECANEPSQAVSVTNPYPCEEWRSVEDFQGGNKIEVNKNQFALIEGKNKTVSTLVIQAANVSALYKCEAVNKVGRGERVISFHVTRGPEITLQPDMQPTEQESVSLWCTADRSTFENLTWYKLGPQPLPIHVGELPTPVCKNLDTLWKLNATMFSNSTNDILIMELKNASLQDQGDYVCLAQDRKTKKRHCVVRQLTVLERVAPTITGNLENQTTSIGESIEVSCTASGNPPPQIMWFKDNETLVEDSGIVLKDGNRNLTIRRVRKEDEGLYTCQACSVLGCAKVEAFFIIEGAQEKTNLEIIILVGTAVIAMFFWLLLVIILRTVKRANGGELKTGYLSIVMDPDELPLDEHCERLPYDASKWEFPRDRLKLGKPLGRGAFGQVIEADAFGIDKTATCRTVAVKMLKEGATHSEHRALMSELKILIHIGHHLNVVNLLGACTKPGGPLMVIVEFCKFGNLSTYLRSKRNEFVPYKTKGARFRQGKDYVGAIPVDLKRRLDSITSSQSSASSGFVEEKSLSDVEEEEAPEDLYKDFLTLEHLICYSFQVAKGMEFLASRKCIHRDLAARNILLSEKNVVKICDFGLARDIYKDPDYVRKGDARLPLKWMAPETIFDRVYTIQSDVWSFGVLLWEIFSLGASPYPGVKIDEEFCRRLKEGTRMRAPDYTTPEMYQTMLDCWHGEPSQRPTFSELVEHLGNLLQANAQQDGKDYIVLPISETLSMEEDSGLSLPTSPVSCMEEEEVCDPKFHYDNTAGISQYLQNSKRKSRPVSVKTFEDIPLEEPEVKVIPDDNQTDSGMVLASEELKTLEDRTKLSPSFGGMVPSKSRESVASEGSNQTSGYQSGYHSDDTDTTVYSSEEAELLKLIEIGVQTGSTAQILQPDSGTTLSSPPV
Sequence of Cyclin-dependent kinase 7 (P50613 whole entry): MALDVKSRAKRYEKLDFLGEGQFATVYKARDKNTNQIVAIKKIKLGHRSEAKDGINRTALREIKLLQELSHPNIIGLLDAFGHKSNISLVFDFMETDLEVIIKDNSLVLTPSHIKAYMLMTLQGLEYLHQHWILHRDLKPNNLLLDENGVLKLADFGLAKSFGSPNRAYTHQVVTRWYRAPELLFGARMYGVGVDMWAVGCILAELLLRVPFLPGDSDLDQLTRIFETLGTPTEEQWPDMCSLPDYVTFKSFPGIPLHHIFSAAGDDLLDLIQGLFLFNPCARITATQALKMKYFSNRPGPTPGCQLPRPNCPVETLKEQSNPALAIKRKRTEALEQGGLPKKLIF
Sequence of Cyclin-dependent kinase 8 (P49336 whole entry): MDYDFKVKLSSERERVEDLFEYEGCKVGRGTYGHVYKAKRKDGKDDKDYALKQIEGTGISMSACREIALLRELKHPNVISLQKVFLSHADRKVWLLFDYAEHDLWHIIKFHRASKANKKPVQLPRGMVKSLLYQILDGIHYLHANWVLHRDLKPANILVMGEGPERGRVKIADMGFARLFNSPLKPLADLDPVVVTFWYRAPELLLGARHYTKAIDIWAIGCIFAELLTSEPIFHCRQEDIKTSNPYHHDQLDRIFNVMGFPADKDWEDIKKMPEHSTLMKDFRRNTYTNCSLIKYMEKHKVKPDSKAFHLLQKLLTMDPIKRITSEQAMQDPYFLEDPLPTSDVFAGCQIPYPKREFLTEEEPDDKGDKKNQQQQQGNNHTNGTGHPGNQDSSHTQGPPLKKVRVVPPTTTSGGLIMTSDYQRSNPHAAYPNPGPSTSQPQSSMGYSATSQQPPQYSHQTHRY
Sequence of Mitogen-activated protein kinase 8 (P45983 whole entry): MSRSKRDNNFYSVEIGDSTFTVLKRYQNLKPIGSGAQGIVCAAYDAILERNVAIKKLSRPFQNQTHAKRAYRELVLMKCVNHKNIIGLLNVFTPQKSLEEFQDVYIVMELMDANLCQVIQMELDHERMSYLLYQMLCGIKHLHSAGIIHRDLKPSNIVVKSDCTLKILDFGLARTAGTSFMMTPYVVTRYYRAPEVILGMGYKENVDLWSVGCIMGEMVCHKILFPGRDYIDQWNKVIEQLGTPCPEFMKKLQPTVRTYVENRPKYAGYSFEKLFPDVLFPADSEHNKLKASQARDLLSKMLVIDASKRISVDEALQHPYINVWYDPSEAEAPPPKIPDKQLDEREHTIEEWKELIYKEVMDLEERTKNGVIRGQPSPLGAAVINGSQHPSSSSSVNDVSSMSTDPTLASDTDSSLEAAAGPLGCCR
Sequence of Tyrosine-protein kinase JAK2 (O60674 whole entry): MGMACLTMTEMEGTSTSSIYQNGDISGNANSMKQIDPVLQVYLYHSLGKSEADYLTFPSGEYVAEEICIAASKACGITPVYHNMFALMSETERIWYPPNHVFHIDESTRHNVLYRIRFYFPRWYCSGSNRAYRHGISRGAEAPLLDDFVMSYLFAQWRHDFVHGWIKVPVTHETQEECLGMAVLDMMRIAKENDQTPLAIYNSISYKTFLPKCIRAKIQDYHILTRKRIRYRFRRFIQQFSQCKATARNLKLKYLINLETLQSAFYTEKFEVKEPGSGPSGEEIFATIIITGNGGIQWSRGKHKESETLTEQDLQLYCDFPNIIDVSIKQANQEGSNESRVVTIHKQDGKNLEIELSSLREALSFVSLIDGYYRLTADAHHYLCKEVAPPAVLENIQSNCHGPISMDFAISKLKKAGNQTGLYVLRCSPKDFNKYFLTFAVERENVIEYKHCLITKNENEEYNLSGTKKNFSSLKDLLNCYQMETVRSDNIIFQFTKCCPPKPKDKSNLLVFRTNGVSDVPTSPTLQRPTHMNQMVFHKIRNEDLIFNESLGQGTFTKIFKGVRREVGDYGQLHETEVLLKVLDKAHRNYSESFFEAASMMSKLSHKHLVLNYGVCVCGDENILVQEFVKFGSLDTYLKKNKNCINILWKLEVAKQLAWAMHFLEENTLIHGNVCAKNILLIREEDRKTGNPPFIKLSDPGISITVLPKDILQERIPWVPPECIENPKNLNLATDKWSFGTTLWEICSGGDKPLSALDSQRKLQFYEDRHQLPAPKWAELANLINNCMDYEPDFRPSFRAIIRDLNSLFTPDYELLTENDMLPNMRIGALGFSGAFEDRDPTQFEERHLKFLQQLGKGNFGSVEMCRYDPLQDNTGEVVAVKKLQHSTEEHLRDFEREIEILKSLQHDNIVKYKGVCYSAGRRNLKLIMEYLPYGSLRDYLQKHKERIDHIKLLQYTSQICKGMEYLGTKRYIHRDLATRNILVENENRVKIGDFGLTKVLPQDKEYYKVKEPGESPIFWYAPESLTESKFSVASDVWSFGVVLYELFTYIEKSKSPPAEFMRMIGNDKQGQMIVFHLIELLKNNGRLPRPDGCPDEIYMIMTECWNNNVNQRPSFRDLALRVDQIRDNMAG
Sequence of Glycogen synthase kinase-3 alpha (P49840 whole entry): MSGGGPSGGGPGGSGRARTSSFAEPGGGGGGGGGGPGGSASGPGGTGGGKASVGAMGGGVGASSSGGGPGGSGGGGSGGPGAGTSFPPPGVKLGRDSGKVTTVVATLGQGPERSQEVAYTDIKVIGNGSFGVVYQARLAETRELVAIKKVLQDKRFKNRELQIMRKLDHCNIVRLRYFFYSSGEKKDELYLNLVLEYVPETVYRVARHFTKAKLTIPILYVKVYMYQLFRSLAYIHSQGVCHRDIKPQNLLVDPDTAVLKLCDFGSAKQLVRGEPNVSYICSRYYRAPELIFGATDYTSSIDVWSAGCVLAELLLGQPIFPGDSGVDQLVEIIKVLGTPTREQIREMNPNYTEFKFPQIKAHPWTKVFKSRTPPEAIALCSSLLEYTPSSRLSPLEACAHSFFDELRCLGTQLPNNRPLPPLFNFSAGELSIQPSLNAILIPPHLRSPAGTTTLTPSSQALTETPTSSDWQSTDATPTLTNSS

Structure (SMILES)	Ki [1]	Ki [2]	Ki [3]	Ki [4]	Ki [5]	Ki [6]	Ki [7]	Ki [8]	Ki [9]	Ki [10]	Ki [11]
NC1CCC(Nc2nccc(-c3c[nH]c4ncccc34)n2)CC1 (centres undefined)	0.251 µM (active)	0.1 µM (active)	0.251 µM (active)	0.00398 µM (active)	> 2 µM (inactive)	> 7.94 µM (inactive)	0.00631 µM (active)	0.0501 µM (active)	0.158 µM (active)		
COC(C(=O)N1Cc2[nH]nc(NC(=O)c3ccc(N4CCN(C)CC4)cc3)c2C1)c1ccccc1 (centres undefined)					> 2.51 µM (inactive)					> 3.98 µM (inactive)	> 6.31 µM (inactive)
CC(C)(O)c1cn(-c2ccc3[nH]ncc3c2)nn1	50.1 µM (active)	20 µM (active)	31.6 µM (active)	10 µM (active)	25.1 µM (active)	39.8 µM (active)	50.1 µM (active)	50.1 µM (active)	12.6 µM (active)	15.8 µM (active)	63.1 µM (active)
OCc1cc(-c2ccc3[nH]ncc3c2)on1	15.8 µM (active)	12.6 µM (active)	25.1 µM (active)	12.6 µM (active)	63.1 µM (active)	7.94 µM (active)	12.6 µM (active)	39.8 µM (active)	2.51 µM (active)	6.31 µM (active)	79.4 µM (active)

Source: ChEMBL document CHEMBL1201862, “PubChem BioAssay data set” (2004)
